# Several values for one entry are separate records, joined by “and”; a condition that tells them apart may be missing. Equal values may be shown once.
# Assays:
# [1] = Light-induced E/Z isomerisation and photostationary state (X-ray of Zn complex, NMR, UV-Vis); type: physicochemical; conditions: similar irradiation conditions, NMR and UV-visible experiments
# Text: Evidence of the efficient photostationary state of PyPe, was provided by exposing a coordination metal complex of E-PyPe with Zn^2+, [Zn(E-PyPe)2Cl2]·2DCM, comprising two PyPe. X-Ray analysis confirmed that prior to irradiation both PyPe in the complex were primarily in E-configuration when coordinated to the Zn^2+ metal centre.
# This experiment provided evidence that the light-induced E/Z-configurational change in PyPe reaches a photostationary equilibrium of E/Z-PyPe.
# This was achieved by reacting allyl bromide at 40 °C in Acetonitril (MeCN) as described below to produce PyPeBr.
# [2] = system: melanoma OVA-B16 cells line; experiment: MTT cytotoxicity assay; type: cell-based
# Protocol: To this end, cytotoxicity tests using the MTT assay, a standard colorimetric assay for assessing cell metabolic activity known to the person skilled in the art, on melanoma OVA-B16 cells line were performed. […] Cell growth of OVA-16 cells was unaffected after 1h and 24h of exposure of PyPeBr at this concentration.
# [3] = Optical properties in different solvents: emission and absorption maxima, lifetime, quantum yield; type: physicochemical; conditions: for Lifetime, τavr.: multiexponential lifetime represented with τavr.; for Φf: quantum yield determined using integrating sphere
# Protocol: (§1) ^1H-NMR was recorded on 400 MHz (Brucker DRX 400) and ^13C-NMR spectra were recorded on Bruker 100 MHz spectrometer at room temperature with d6-DMSO as a solvent and tetramethylsilane (TMS) as the internal standard. Mass spectra were performed on the Bruker-ION Trap Ms. Fluorescence spectra were measured on an Edinburgh Instruments FS5 Spectrofluorometer. Absorption spectra were determined on a Perkin Elmer UV/VIS Lambda 2 (190-1100 nm) spectrophotometer. IR spectra were recorded on a Perking Elmer FT-IR spectrometer Frontier 4000-400 cm^-1. Single crystal structures were obtained from a STOE-IPDS II (Single crystal diffractometer λ-Mo), solved and refined using SHELXT software package.
# HEK/OVA-B16 cells = experiment: Staining and fluorescence imaging of living cells; type: cell-based; conditions: for staining pattern in cells: HEK/OVA-B16 cells; for uptake by living cells: dyes applied for up to 1 hour at 10µM; for fluorescence emission spectrum in situ, peak: excited at 405 nm
# [4] = Photoluminescence emission spectra in different solvents; type: physicochemical
# Protocol: The photo-physical properties of these dye molecules with stilbene-like motifs were investigated in different solvents in order to determine their maximum absorption and emission wavelengths (Figures 6A to 6C). The compounds were dissolved in Acetonitrile (CH3CN), chloroform (CHCl3), c-hexane (c-HEX), dichloromethane (DCM), dimethylformamide (DMF), methanol (MeOH), tetrahydrofuran (THF), and toluene (Tol).
# The highest emission intensity was detected when THF and c-Hex were used as solvents, with lesser intensity recorded for DMF and Tol. PyPe emits light in the blue range, with emission peaks between 380nm and 550nm. Absolute intensities of up to 3.5 x 10^6 were recorded for PyPe in c-Hex.
# The photoluminescence spectra of PyPeBr upon excitation at 440nm when dissolved in CH3CN, CHCl3, DCM, DMF, MeOH, or Tol, and upon excitation at 370 nm when dissolved in c-Hex or THF is shown in Figure 4B. PyPeBr has a relatively broad emission spectrum, which depends on the solvent used. The emission spectrum of PyPeBr can be as broad to cover most of the visible range. This broad emission range offers the possibility to select a desired wavelength for imaging by applying appropriate filters.
# PyPh emits light in the blue range, ranging from 400nm to 500nm. […] The loss in stability is due to the self-photobleaching reactions, which are induced by irradiation.
# as §1
# [5] = Photostability: UV-visible spectra of 5µM solutions after continuous irradiation with 400 nm light (Xenon-arc lamp, 300 Watt); type: physicochemical; conditions: for stability of the absorbance under irradiation: up to 24h
# Protocol: To examine the stability of the absorbance of PyPeBr and PyPe, 5µM solution (2.5 mL) of the respective compounds were prepared using different solvents. The compounds were then irradiated with 400nm using a Xenon-arc lamp at 300 Watt (25 nm FWHM). Following predefined irradiation periods, indicated in Figures 6A to 6H, UV-visible spectra were collected to monitor the stability of PyPeBr and PyPe in different solvents.
compound,measurement,setting,value
"C=CC[n+]1ccc(/C=C/c2ccc3ccc4cccc5ccc2c3c45)cc1.[Br-] [PyPeBr, (E)-1-allyl-4-(2-(pyren-1-yl)vinyl)pyridinium bromide]",rate of E/Z-isomerization,[1],substantially faster than in PyPe
same,deterioration in cell activity,[2]; 50 µM in cell buffered water or water/buffer/DMSO mixtures,minor or non-visible signs of deterioration in cell activity
same,cell growth,"[2]; 50 µM, after 1h and 24h of exposure",unaffected
same,solubility in water,Solubility,highly soluble in water
same,Knr,[3]; solvent CH3CN,3.15 10^8 s^-1
same,kr,[3]; solvent CH3CN,1.05 10^8 s^-1
same,λ^em max,"[3]; solvent CH3CN, Table 2, excitation not given",621 nm
same,"Lifetime, τavr.",[3]; solvent CH3CN,2.38 ns
same,Φf,[3]; solvent CH3CN,0.25
same,Knr,[3]; solvent CHCl3,0.06 10^8 s^-1
same,kr,[3]; solvent CHCl3,6.27 10^8 s^-1
same,λ^em max,"[3]; solvent CHCl3, Table 2, excitation not given",609 nm
same,"Lifetime, τavr.",[3]; solvent CHCl3,1.58 ns
same,Φf,[3]; solvent CHCl3,0.99
same,Knr,[3]; solvent DCM,1.87 10^8 s^-1
same,kr,[3]; solvent DCM,0.36 10^8 s^-1
same,λ^abs max,[3]; solvent DCM,492 nm
same,λ^em max,"[3]; solvent DCM, Table 2, excitation not given",622 nm
same,"Lifetime, τavr.",[3]; solvent DCM,4.5 ns
same,Φf,[3]; solvent DCM,0.16
same,Knr,[3]; solvent DMF,1.79 10^8 s^-1
same,kr,[3]; solvent DMF,2.18 10^8 s^-1
same,"Lifetime, τavr.",[3]; solvent DMF,2.52 ns
same,Φf,[3]; solvent DMF,0.55
same,Knr,[3]; solvent MeOH,1.33 10^8 s^-1
same,kr,[3]; solvent MeOH,3.79 10^8 s^-1
same,λ^em max,"[3]; solvent MeOH, Table 2, excitation not given",614 nm
same,"Lifetime, τavr.",[3]; solvent MeOH,1.95 ns
same,Φf,[3]; solvent MeOH,0.74
same,Knr,[3]; solvent THF,3.08 10^8 s^-1
same,kr,[3]; solvent THF,0.06 10^8 s^-1
same,λ^abs max,[3]; solvent THF,447 nm
same,λ^em max,"[3]; solvent THF, Table 2, excitation not given",617 nm
same,"Lifetime, τavr.",[3]; solvent THF,3.18 ns
same,Φf,[3]; solvent THF,0.02
same,Knr,[3]; solvent Toluene,4.21 10^8 s^-1
same,kr,[3]; solvent Toluene,0.04 10^8 s^-1
same,λ^abs max,[3]; solvent Toluene,455 nm
same,λ^em max,"[3]; solvent Toluene, Table 2, excitation not given",606 nm
same,"Lifetime, τavr.",[3]; solvent Toluene,2.35 ns
same,Φf,[3]; solvent Toluene,0.01
same,Knr,[3]; solvent c-Hex,4.69 10^8 s^-1
same,kr,[3]; solvent c-Hex,0.10 10^8 s^-1
same,λ^abs max,[3]; solvent c-Hex,370 nm
same,"Lifetime, τavr.",[3]; solvent c-Hex,2.09 ns
same,Φf,[3]; solvent c-Hex,0.02
same,morphological signs of cell toxicity,HEK/OVA-B16 cells; 10µM,cytosol structure changes were observed
same,morphological signs of cell toxicity,HEK/OVA-B16 cells; 50µM,cells became round and started to detach
same,staining pattern in cells,HEK/OVA-B16 cells,stained the cytoplasm
same,uptake by living cells,HEK/OVA-B16 cells,readily taken up
same,"fluorescence emission spectrum in situ, peak",HEK/OVA-B16 cells,565 nm
same,highest emission intensity,"[4]; dissolved in DMF, excitation at 440nm",over 8.5 x 10^6
same,emission peaks,"[4]; very broad emission range, listed as General Formula P1.1",405 nm and 465 nm and 565 nm
same,stability of the absorbance under irradiation,[5]; 5µM in MeOH,only a minor decrease in absorbance after 15 minutes of irradiation but no further significant increase over a 24h irradiation period
same,capacity to absorb light ranging from 370 nm to 500 nm under irradiation,"[5]; 5µM in ultra-pure water (MilliQ purification), 24h",remained substantially unchanged over a 24h irradiation period
"C(=C\c1ccc2ccc3cccc4ccc1c2c34)/c1ccncc1 [PyPe, (E)-4-(2-(pyren-1-yl)vinyl)pyridine, reference compound]",Knr,[3]; solvent CH3CN,0.38 10^8 s^-1
same,kr,[3]; solvent CH3CN,4.44 10^8 s^-1
same,"Lifetime, τavr.",[3]; solvent CH3CN,2.07 ns
same,Φf,[3]; solvent CH3CN,0.92
same,λ^em max,"[3]; solvent CH3CN, λex = 405 nm",616 nm
same,Knr,[3]; solvent CHCl3,0.66 10^8 s^-1
same,kr,[3]; solvent CHCl3,5.44 10^8 s^-1
same,"Lifetime, τavr.",[3]; solvent CHCl3,1.65 ns
same,Φf,[3]; solvent CHCl3,0.89
same,λ^em max,"[3]; solvent CHCl3, λex = 405 nm",607 nm
same,Knr,[3]; solvent DCM,2.38 10^8 s^-1
same,kr,[3]; solvent DCM,3.43 10^8 s^-1
same,"Lifetime, τavr.",[3]; solvent DCM,1.72 ns
same,Φf,[3]; solvent DCM,0.59
same,λ^em max,"[3]; solvent DCM, λex = 405 nm",623 nm
same,Knr,[3]; solvent DMF,0.26 10^8 s^-1
same,kr,[3]; solvent DMF,2.60 10^8 s^-1
same,"Lifetime, τavr.",[3]; solvent DMF,3.5 ns
same,Φf,[3]; solvent DMF,0.91
same,Knr,[3]; solvent MeOH,0.65 10^8 s^-1
same,kr,[3]; solvent MeOH,3.19 10^8 s^-1
same,"Lifetime, τavr.",[3]; solvent MeOH,2.6 ns
same,Φf,[3]; solvent MeOH,0.83
same,λ^em max,"[3]; solvent MeOH, λex = 405 nm",611 nm
same,Knr,[3]; solvent THF,2.17 10^8 s^-1
same,kr,[3]; solvent THF,2.26 10^8 s^-1
same,"Lifetime, τavr.",[3]; solvent THF,2.26 ns
same,Φf,[3]; solvent THF,0.51
same,λ^em max,"[3]; solvent THF, λex = 405 nm",613 nm
same,Knr,[3]; solvent Toluene,0.53 10^8 s^-1
same,kr,[3]; solvent Toluene,3.91 10^8 s^-1
same,"Lifetime, τavr.",[3]; solvent Toluene,2.25 ns
same,Φf,[3]; solvent Toluene,0.88
same,λ^em max,"[3]; solvent Toluene, λex = 405 nm",603 nm
same,Knr,[3]; solvent c-Hex,0.47 10^8 s^-1
same,kr,[3]; solvent c-Hex,0.84 10^8 s^-1
same,"Lifetime, τavr.",[3]; solvent c-Hex,7.58 ns
same,Φf,[3]; solvent c-Hex,0.64
same,morphological signs of cell toxicity,HEK/OVA-B16 cells; 10µM,No morphological signs of cell toxicity
same,staining pattern in cells,HEK/OVA-B16 cells,cytosolic staining and subcellular partitioning
same,uptake by living cells,HEK/OVA-B16 cells,readily taken up
same,"fluorescence emission spectrum in situ, peak",HEK/OVA-B16 cells,465 nm
same,absolute emission intensities,"[4]; in c-Hex, excitation at 370nm",up to 3.5 x 10^6
same,stability of the absorbance under irradiation,[5]; 5µM in DCM,an early bleaching effect could be detected within the first 15 minutes of irradiation
same,stability of the absorbance under irradiation,[5]; 5µM in MeOH,an early bleaching effect could be detected within the first 15 minutes of irradiation
"C(=C\c1ccc2ccc3cccc4ccc1c2c34)/c1ccccc1 [PyPh, (E)-1-styrylpyrene]",morphological signs of cell toxicity,HEK/OVA-B16 cells; 10µM,No morphological signs of cell toxicity
same,uptake by living cells,HEK/OVA-B16 cells,readily taken up
same,"fluorescence emission spectrum in situ, peak",HEK/OVA-B16 cells,450 nm
same,"highest emission intensity, factor less than optimal emission intensities of PyPeBr",[4]; excitation at 370nm,~1000
same,stability of the absorbance under irradiation,[5]; 5µM in DCM,Comparable results
same,stability of the absorbance under irradiation,[5]; 5µM in MeCN,"gradually decreases over a 24h irradiation period, with a significant drop detected as early as after 15 mins of irradiation"
same,stability of the absorbance under irradiation,[5]; 5µM in MeOH,"gradually decreases over a 24h irradiation period, with a significant drop detected as early as after 15 mins of irradiation"
Cascade Blue,irradiation time to complete photobleaching,[5]; 5µM in ultra-pure water (Milli Q purification),≤ 8 h

# — patent EP4534610A1, “FLUOROPHORE COMPOUNDS AND PRODUCTION THEREOF” (Université Fribourg, priority 2023, dated 2025)
